From the CheMixHub ionic liquid set

Experiment: xn = mol fraction of the nth substance listed

CS(C)=O + CCCC[n+]1ccn(C)c1.O=S(=O)([O-])C(F)(F)F
100 kPa, x2 = 0
Conditions	viscosity [mPa·s]
298.15 K	2.03
303.15 K	1.84
308.15 K	1.67
313.15 K	1.53
318.15 K	1.41
323.15 K	1.3

CCCCCCCCCCCCCC[P+](CCCCCC)(CCCCCC)CCCCCC.[c-]1c[nH]nn1 + CCCCCC[n+]1ccn(C)c1.O=S(=O)([N-]S(=O)(=O)C(F)(F)F)C(F)(F)F
viscosity [mPa·s], 100 kPa
Conditions	278.15 K	283.15 K	288.15 K	293.15 K	298.15 K	303.15 K	308.15 K	313.15 K	318.15 K	323.15 K
x2 = 0.135	2499	1630	1087	744	527	382	284	215	166	131
x2 = 0.3	2448	1593	1061	725	511	369	274	206	159	125
x2 = 0.348	2031	1329	890	614	437	317	236	180	139	109
x2 = 0.45	1597	1057	717	498	358	262	197	151	118	94
x2 = 0.58	1211	820	567	402	294	219	168	131	104	84
x2 = 0.698	755	522	369	268	200	152	119	94	76	62
x2 = 0.849	417	295	214	159	122	96	77	62	51	–

CC(=O)[O-].CCCC[NH2+]CCO + CCCC[n+]1ccn(C)c1.COP(=O)([O-])OC
viscosity [mPa·s], 101 kPa
Conditions	x1 = 0.1014	x1 = 0.172	x1 = 0.2979	x1 = 0.4067	x1 = 0.4989	x1 = 0.6316	x1 = 0.7065	x1 = 0.8011	x1 = 0.8913	x1 = 1
278.15 K	–	–	–	–	–	–	–	–	–	6138
283.15 K	1725	1555	1328	1208	1161	1288	1457	1793	2360	3634
288.15 K	1103	997	855	781	751	825	930	1135	1475	2230
293.15 K	730	662	571	522	503	548	614	741	952	1412
298.15 K	499	454	392	360	346	375	417	499	633	921
303.15 K	351	319.8	277.3	254.3	244.8	263.1	290.6	344	431	617
308.15 K	253.2	231.1	200.9	184.2	177.2	189.1	207.4	243.2	301	423
313.15 K	186.8	170.8	148.7	136.5	131.1	138.9	151.3	175.7	214.8	297
318.15 K	140.7	128.9	112.4	103.1	98.9	104	112.6	129.5	156.5	212.7
323.15 K	108.1	99.1	86.6	79.4	76	79.4	85.4	97.2	116.1	155.3
328.15 K	84.5	77.6	67.8	62.2	59.4	61.6	65.9	74.2	87.7	115.3
333.15 K	67.08	61.68	53.98	49.43	47.16	48.5	51.57	57.6	67.3	87
338.15 K	54.05	49.76	43.58	39.88	37.96	38.75	40.98	45.33	52.4	66.7
343.15 K	44.14	40.69	35.65	32.6	30.96	31.37	33	36.18	41.36	51.9
348.15 K	36.5	33.69	29.51	26.96	25.56	25.71	26.9	29.24	33.08	40.87
353.15 K	30.53	28.22	24.71	22.56	21.33	21.31	22.18	23.9	26.78	32.6
358.15 K	25.8	23.88	20.91	19.07	17.99	17.86	18.48	19.75	21.91	26.29
363.15 K	22.02	20.4	17.86	16.27	15.31	15.1	15.55	16.48	18.11	21.43
368.15 K	18.97	17.58	15.4	14.01	13.15	12.89	13.21	13.89	15.12	17.63
373.15 K	16.47	15.28	13.38	12.15	11.38	11.09	11.3	11.8	12.72	14.64

CCCC[N+](CCCC)(CCCC)CCCC.[Cl-] + CC(C)C[C@H](N)C(=O)O
100 kPa
Conditions	electrical conductivity, 313.15 K [S/m]	electrical conductivity, 323.15 K [S/m]	electrical conductivity, 333.15 K [S/m]	electrical conductivity, 343.15 K [S/m]	electrical conductivity, 353.15 K [S/m]	viscosity, 313.15 K [mPa·s]	viscosity, 323.15 K [mPa·s]	viscosity, 333.15 K [mPa·s]	viscosity, 343.15 K [mPa·s]	viscosity, 353.15 K [mPa·s]
x1 = 0.8889	0.0188	0.0377	0.0631	0.0885	0.12	1070	444	219	123	76
x1 = 0.9	0.0149	0.027	0.0441	0.068	0.0891	940	517	259	146	88.1
x1 = 0.9091	0.0194	0.0302	0.054	0.0761	0.0971	890	410	197	114	99

CCCCCCCCCCCCCC[P+](CCCCCC)(CCCCCC)CCCCCC.N#Cc1ccc[n-]1 + CCCCCC[n+]1ccn(C)c1C.O=S(=O)([N-]S(=O)(=O)C(F)(F)F)C(F)(F)F
100 kPa
Conditions	viscosity [mPa·s]
278.15 K, x2 = 0.799	900
283.15 K, x2 = 0.601	900
288.15 K, x2 = 0	800
288.15 K, x2 = 0.098	870
288.15 K, x2 = 0.301	760

CS(C)=O + COCCCC[n+]1ccn(C)c1.C[C@@H](O)[C@H](N)C(=O)[O-]
100 kPa, x2 = 0
Conditions	viscosity [mPa·s]
288.15 K	2.47
293.15 K	2.21
298.15 K	1.99
303.15 K	1.81
308.15 K	1.65
313.15 K	1.51
318.15 K	1.39
